Reference: US20100267561A1, “HERBICIDAL PYRIDAZINONE DERIVATIVES” (priority 2007, published 2010)

Experiments:
Format in all cases: in vivo
rice (Oryza sativa) = assay: Test B flooded paddy test plant response
Outline: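 Step one: raise plants to 2 leaves. Step two: flood pots 3 cm over the soil and apply compound into the water, keeping this depth. Step three: after 13–15 greenhouse days, score visually versus controls, 0–100, where 100 means complete control.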

[1] = test system: Russian thistle (Salsola iberica); assay: Test B pre-/postemergence plant response; settings: Preemergence; for Russian Thistle plant response rating: scale 0 to 100
Outline: (§1)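 Visual scoring from 0 (no effect) to 100 (complete control) against untreated controls was done 13 to 15 days after greenhouse treatment. Chemicals were formulated in a surfactant-containing non-phytotoxic solvent and applied to soil preemergence or to 1- to 4-leaf (2-18 cm) plants postemergence.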

[2] = test system: velvetleaf (Abutilon theophrasti); assay: Test B pre-/postemergence plant response
Outline: as §1

[3] = test system: green foxtail (Setaria viridis); assay: Test B pre-/postemergence plant response
Outline: as §1

[4] = test system: downy bromegrass (Bromus tectorum); assay: Test B pre-/postemergence plant response; settings: for Bromegrass, Downy plant response rating: 8 g ai/ha
Outline: as §1

[5] = test system: cocklebur (Xanthium strumarium); assay: Test B pre-/postemergence plant response; settings: for Cocklebur plant response rating: 8 g ai/ha
Outline: as §1

[6] = test system: common (oilseed) sunflower (Helianthus annuus); assay: Test B pre-/postemergence plant response; settings: Preemergence; for Sunflower plant response rating: scale 0 to 100
Outline: as §1

[7] = test system: woolly cupgrass (Eriochloa villosa); assay: Test B pre-/postemergence plant response; settings: for Cupgrass, Woolly plant response rating: 8 g ai/ha
Outline: as §1

[8] = test system: large crabgrass (Digitaria sanguinalis); assay: Test B pre-/postemergence plant response
Outline: as §1

[9] = test system: pigweed (Amaranthus retroflexus); assay: Test B pre-/postemergence plant response
Outline: as §1

soybean (Glycine max) = assay: Test B pre-/postemergence plant response
Outline: as §1

[10] = test system: catchweed bedstraw (Galium aparine); assay: Test B pre-/postemergence plant response; settings: Preemergence; for Galium plant response rating: scale 0 to 100
Outline: as §1

[11] = test system: goosegrass (Eleusine indica); assay: Test B pre-/postemergence plant response
Outline: as §1

[12] = test system: wheat (Triticum aestivum); assay: Test B pre-/postemergence plant response
Outline: as §1

[13] = 31 g ai/ha, scale 0 to 100 (0 no effect, 100 complete control)
[14] = 62 g ai/ha, 0 to 100 scale, 0 no effect, 100 complete control
[15] = 8 g ai/ha, postemergence, 0-100 scale
[16] = 16 g ai/ha, postemergence, 0-100 scale
[17] = Postemergence, 31 g ai/ha, scale 0 to 100
[18] = Postemergence, 62 g ai/ha, scale 0 to 100, 0 no effect, 100 complete control
[19] = Preemergence, 31 g ai/ha, scale 0 to 100 (0 no effect, 100 complete control)
[20] = Preemergence, 62 g ai/ha, 0 to 100 scale, 0 no effect, 100 complete control
[21] = Preemergence, 8 g ai/ha, scale 0 to 100
[22] = Preemergence, 16 g ai/ha, scale 0 to 100
[23] = Postemergence, 16 g ai/ha, scale 0 to 100
[24] = Preemergence, 16 g ai/ha, scale 0 to 100 (0 no effect, 100 complete control)

Compound: CCCc1cc(-c2ccc(C(F)(F)F)cc2)nn1-c1c(O)cnn(C)c1=O [Compound 72]
- Plant response rating, Rice (rice (Oryza sativa); Flood (flooded paddy test), 62 g ai/ha, scale 0 to 100, 0 no effect, 100 complete control): 15
- Plant response rating, Rice (rice (Oryza sativa); Flood (flooded paddy test), 125 g ai/ha, scale 0 to 100, 0 no effect, 100 complete control): 45
- Plant response rating, Rice (rice (Oryza sativa); Flood (flooded paddy test), 250 g ai/ha, scale 0 to 100, 0 no effect, 100 complete control): 65
- Plant response rating, Rice (rice (Oryza sativa); Flood, 31 g ai/ha, scale 0 to 100): 10
- Plant response rating, Russian Thistle [1, 13]: 0
- Plant response rating, Russian Thistle [1, 14]: 0
- Russian Thistle plant response rating ([1]; 8 g ai/ha): 0
- Russian Thistle plant response rating ([1]; 16 g ai/ha): 0
- Velvetleaf plant response rating [2, 15]: 0
- Velvetleaf plant response rating [2, 16]: 0
- Plant response rating, Velvetleaf [2, 17]: 0
- Plant response rating, Velvetleaf [2, 18]: 0
- Plant response rating, Velvetleaf [2, 19]: 0
- Plant response rating, Velvetleaf [2, 20]: 0
- Velvetleaf plant response rating [2, 21]: 0
- Velvetleaf plant response rating [2, 22]: 0
- Foxtail, Green plant response rating [3, 15]: 98
- Plant response rating, Foxtail, Green [3, 23]: 98
- Plant response rating, Foxtail, Green [3, 17]: 100
- Plant response rating, Foxtail, Green [3, 18]: 100
- Plant response rating, Foxtail, Green [3, 19]: 100
- Plant response rating, Foxtail, Green [3, 20]: 100
- Foxtail, Green plant response rating [3, 21]: 25
- Foxtail, Green plant response rating [3, 22]: 100
- Bromegrass, Downy plant response rating ([4]; postemergence, 0-100 scale): 20
- Plant response rating, Bromegrass, Downy [4, 23]: 30
- Plant response rating, Bromegrass, Downy [4, 17]: 30
- Plant response rating, Bromegrass, Downy [4, 18]: 30
- Plant response rating, Bromegrass, Downy [4, 24]: 30
- Plant response rating, Bromegrass, Downy [4, 19]: 50
- Plant response rating, Bromegrass, Downy [4, 20]: 95
- Bromegrass, Downy plant response rating ([4]; Preemergence, scale 0 to 100): 0
- Cocklebur plant response rating ([5]; postemergence, 0-100 scale): 0
- Plant response rating, Cocklebur [5, 23]: 0
- Plant response rating, Cocklebur [5, 17]: 0
- Plant response rating, Cocklebur [5, 18]: 0
- Plant response rating, Cocklebur [5, 24]: 0
- Plant response rating, Cocklebur [5, 19]: 0
- Plant response rating, Cocklebur [5, 20]: 0
- Cocklebur plant response rating ([5]; Preemergence, scale 0 to 100): 0
- Plant response rating, Sunflower [6, 13]: 0
- Plant response rating, Sunflower [6, 14]: 0
- Sunflower plant response rating ([6]; 8 g ai/ha): 0
- Sunflower plant response rating ([6]; 16 g ai/ha): 0
- Cupgrass, Woolly plant response rating ([7]; postemergence, 0-100 scale): 55
- Plant response rating, Cupgrass, Woolly [7, 23]: 80
- Plant response rating, Cupgrass, Woolly [7, 17]: 90
- Plant response rating, Cupgrass, Woolly [7, 18]: 90
- Plant response rating, Cupgrass, Woolly [7, 19]: 85
- Plant response rating, Cupgrass, Woolly [7, 20]: 100
- Cupgrass, Woolly plant response rating ([7]; Preemergence, scale 0 to 100): 70
- Crabgrass, Large plant response rating [8, 15]: 95
- Plant response rating, Crabgrass, Large [8, 23]: 100
- Plant response rating, Crabgrass, Large [8, 17]: 100
- Plant response rating, Crabgrass, Large [8, 18]: 100
- Plant response rating, Crabgrass, Large [8, 19]: 80
- Plant response rating, Crabgrass, Large [8, 20]: 100
- Crabgrass, Large plant response rating [8, 21]: 30
- Crabgrass, Large plant response rating [8, 22]: 50
- Pigweed plant response rating [9, 15]: 0
- Pigweed plant response rating [9, 16]: 0
- Plant response rating, Pigweed [9, 17]: 0
- Plant response rating, Pigweed [9, 18]: 0
- Plant response rating, Pigweed [9, 19]: 0
- Plant response rating, Pigweed [9, 20]: 50
- Pigweed plant response rating [9, 21]: 0
- Pigweed plant response rating [9, 22]: 0
- Soybean plant response rating (soybean (Glycine max); [15]): 0
- Soybean plant response rating (soybean (Glycine max); [16]): 0
- Plant response rating, Soybean (soybean (Glycine max); [17]): 0
- Plant response rating, Soybean (soybean (Glycine max); [18]): 0
- Plant response rating, Soybean (soybean (Glycine max); [19]): 0
- Plant response rating, Soybean (soybean (Glycine max); [20]): 0
- Soybean plant response rating (soybean (Glycine max); [21]): 0
- Soybean plant response rating (soybean (Glycine max); [22]): 0
- Plant response rating, Galium [10, 13]: 0
- Plant response rating, Galium [10, 14]: 0
- Galium plant response rating ([10]; 8 g ai/ha): 0
- Galium plant response rating ([10]; 16 g ai/ha): 0
- Goosegrass plant response rating [11, 15]: 30
- Goosegrass plant response rating [11, 16]: 30
- Plant response rating, Goosegrass [11, 17]: 35
- Plant response rating, Goosegrass [11, 18]: 35
- Plant response rating, Goosegrass [11, 19]: 95
- Plant response rating, Goosegrass [11, 20]: 100
- Goosegrass plant response rating [11, 21]: 95
- Goosegrass plant response rating [11, 22]: 95
- Wheat plant response rating [12, 15]: 85
- Wheat plant response rating [12, 16]: 85
- Plant response rating, Wheat [12, 17]: 85
- Plant response rating, Wheat [12, 18]: 95
- Plant response rating, Wheat [12, 19]: 80
- Plant response rating, Wheat [12, 20]: 90
- Wheat plant response rating [12, 22]: 35
